Source: ChEMBL document CHEMBL5215007, “Polycyclic Polyprenylated Acylphloroglucinols Bearing a Lavandulyl-Derived Substituent from Garcinia xanthochymus Fruits” (J Nat Prod, 2022)
Active and inactive are the calls of the source. The rule behind the calls is not given here.

How the values were obtained:
[1] = system: Huh-7; assay: Induction of apoptosis in human Huh-7 cells assessed as viable cells at 12.5 uM incubated for 24 hrs by Annexin V-FITC/PI staining based flow cytometric analysis (reference value: 92.31 %); format: functional; settings: read-out: Activity
[2] = molecular target: Signal transducer and activator of transcription 3 (Homo sapiens) (UniProt P40763); assay: Inhibition of STAT3 phosphorylation in human Huh-7 cells at 6.25 to 12.5 uM by Western blot analysis; format: cell-based; settings: dose 6.25-12.5 µM
[3] = system: Huh-7; assay: Induction of apoptosis in human Huh-7 cells assessed as necrotic cells at 6.25 uM incubated for 24 hrs by Annexin V-FITC/PI staining based flow cytometric analysis (reference value: 1.67 %); format: functional
[4] = system: Huh-7; assay: Induction of apoptosis in human Huh-7 cells assessed as late apoptotic cells at 3.125 uM incubated for 24 hrs by Annexin V-FITC/PI staining based flow cytometric analysis (reference value: 3.19 %); format: functional
[5] = system: Huh-7; assay: Induction of apoptosis in human Huh-7 cells assessed as viable cells at 6.25 uM incubated for 24 hrs by Annexin V-FITC/PI staining based flow cytometric analysis (reference value: 92.31 %); format: functional; settings: read-out: Activity
[6] = system: Hep 3B2; assay: Antiproliferative activity against human Hep3B cells assessed as inhibition of cell proliferation incubated for 24 hrs by CCK-8 assay; format: functional, cell-based
[7] = system: Huh-7; assay: Induction of apoptosis in human Huh-7 cells assessed as late apoptotic cells at 12.5 uM incubated for 24 hrs by Annexin V-FITC/PI staining based flow cytometric analysis (reference value: 3.19 %); format: functional
[8] = system: Huh-7; assay: Induction of apoptosis in human Huh-7 cells assessed as late apoptotic cells at 6.25 uM incubated for 24 hrs by Annexin V-FITC/PI staining based flow cytometric analysis (reference value: 3.19 %); format: functional
[9] = system: HepG2; assay: Antiproliferative activity against human HepG2 cells assessed as inhibition of cell proliferation incubated for 24 hrs by CCK-8 assay; format: functional, cell-based; settings: HepG2, 24 h
[10] = system: Huh-7; assay: Antimigratory activity against human Huh-7 cells assessed as inhibition of cell migration at 6.25 to 12.5 uM incubated for 48 hrs by scratch wound healing assay; format: functional, cell-based; settings: dose 6.25-12.5 µM
[11] = system: Huh-7; assay: Induction of apoptosis in human Huh-7 cells assessed as early apoptotic cells at 12.5 uM incubated for 24 hrs by Annexin V-FITC/PI staining based flow cytometric analysis (reference value: 2.83 %); format: functional
[12] = system: Huh-7; assay: Induction of apoptosis in human Huh-7 cells assessed as necrotic cells at 12.5 uM incubated for 24 hrs by Annexin V-FITC/PI staining based flow cytometric analysis (reference value: 1.67 %); format: functional
[13] = system: Huh-7; assay: Antiproliferative activity against human Huh-7 cells assessed as inhibition of cell proliferation incubated for 24 hrs by CCK-8 assay; format: functional, cell-based; settings: Huh-7, 24 h
[14] = system: Huh-7; assay: Induction of apoptosis in human Huh-7 cells assessed as early apoptotic cells at 6.25 uM incubated for 24 hrs by Annexin V-FITC/PI staining based flow cytometric analysis (reference value: 2.83 %); format: functional
[15] = system: Huh-7; assay: Induction of apoptosis in human Huh-7 cells assessed as necrotic cells at 3.125 uM incubated for 24 hrs by Annexin V-FITC/PI staining based flow cytometric analysis (reference value: 1.67 %); format: functional
[16] = system: Huh-7; assay: Induction of apoptosis in human Huh-7 cells assessed as early apoptotic cells at 3.125 uM incubated for 24 hrs by Annexin V-FITC/PI staining based flow cytometric analysis (reference value: 2.83 %); format: functional
[17] = system: Huh-7; assay: Induction of apoptosis in human Huh-7 cells assessed as viable cells at 3.125 uM incubated for 24 hrs by Annexin V-FITC/PI staining based flow cytometric analysis (reference value: 92.31 %); format: functional; settings: read-out: Activity

Signal transducer and activator of transcription 3 (Homo sapiens), sequence (P40763 whole entry): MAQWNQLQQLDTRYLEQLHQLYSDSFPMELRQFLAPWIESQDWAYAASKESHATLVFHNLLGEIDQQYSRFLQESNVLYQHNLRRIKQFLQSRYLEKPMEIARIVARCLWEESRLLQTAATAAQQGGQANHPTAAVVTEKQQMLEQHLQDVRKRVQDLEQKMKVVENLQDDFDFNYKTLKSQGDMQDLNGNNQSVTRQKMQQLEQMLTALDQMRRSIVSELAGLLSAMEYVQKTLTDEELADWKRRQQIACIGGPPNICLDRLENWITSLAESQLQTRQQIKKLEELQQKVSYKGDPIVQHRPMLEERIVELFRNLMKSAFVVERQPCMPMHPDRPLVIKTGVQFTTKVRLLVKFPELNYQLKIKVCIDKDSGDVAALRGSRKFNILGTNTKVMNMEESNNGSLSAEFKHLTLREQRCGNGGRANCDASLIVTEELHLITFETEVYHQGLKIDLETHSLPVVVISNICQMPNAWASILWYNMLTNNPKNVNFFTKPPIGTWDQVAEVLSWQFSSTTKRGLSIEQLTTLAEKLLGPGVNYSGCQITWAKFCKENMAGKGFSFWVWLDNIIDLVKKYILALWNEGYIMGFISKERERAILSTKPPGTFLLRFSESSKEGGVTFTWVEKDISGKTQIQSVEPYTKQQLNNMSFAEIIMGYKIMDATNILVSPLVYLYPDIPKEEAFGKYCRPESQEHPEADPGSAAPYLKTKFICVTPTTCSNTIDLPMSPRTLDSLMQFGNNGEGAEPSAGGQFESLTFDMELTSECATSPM

IC50 [9] [µM] | IC50 [13] [µM] | SMILES | IC50 [6] [µM] | other results
11.3 | 9.3 | C=C(C)CC[C@@H]1C[C@]23C[C@@H](CC=C(C)C)C(C)(C)[C@](CC=C(C)C)(C(=O)C(C(=O)c4ccc(O)c(O)c4)=C2OC1(C)C)C3=O | 17.1 | viability at 12.5 µM [1]: 77.7%; inhibition [2]: Active; Activity [3]: 3.01%; Activity [4]: 5.35%; viability at 6.25 µM [5]: 80.3%; Activity [7]: 6.37%; Activity [8]: 5.65%; Activity [10]: Active; Activity [11]: 11.75%; Activity [12]: 4.17%; Activity [14]: 11.09%; Activity [15]: 2.09%; Activity [16]: 11.74%; viability at 3.125 µM [17]: 80.8%
22.5 | 22.9 | C=C(C)CC[C@H]1C[C@]23C[C@@H](CC=C(C)C)C(C)(C)[C@](CC=C(C)C)(C(=O)C(C(=O)c4ccc(O)c(O)c4)=C2OC1(C)C)C3=O | 15.5 | 
3.9 | 12.6 | CC(C)=CC[C@@H]1C[C@]23C[C@H](CCC(C)(C)O)C(C)(C)OC2=C(C(=O)c2ccc(O)c(O)c2)C(=O)[C@@](CC=C(C)C)(C3=O)C1(C)C | 9 | 
11 | 18.1 | C=C(C)[C@H]1C[C@]23C[C@H](CC=C(C)C)C(C)(C)[C@](CC=C(C)C)(C(=O)C(C(=O)c4ccc(O)c(O)c4)=C2O[C@@H]1C=C(C)C)C3=O | 18.2 | 
12.4 | 28.2 | C=C(C)CC[C@@H]1C[C@]23C[C@H](CC=C(C)C)C(C)(C)[C@](CC=C(C)C)(C(=O)C(C(=O)c4cccc(O)c4)=C2OC1(C)C)C3=O | 44.8 | 
4.3 | 9.3 | CC(C)=CC[C@@H]1C[C@]23C[C@@H](CC=C(C)C)C(C)(C)[C@](CC=C(C)C)(C(=O)C(C(=O)c4ccc(O)c(O)c4)=C2OC1(C)C)C3=O | 9.3 | viability at 12.5 µM [1]: 83.8%; inhibition [2]: Active; Activity [3]: 1.69%; Activity [4]: 3.19%; viability at 6.25 µM [5]: 86.5%; Activity [7]: 3.3%; Activity [8]: 3.38%; Activity [10]: Active; Activity [11]: 10.38%; Activity [12]: 2.55%; Activity [14]: 8.39%; Activity [15]: 1.53%; Activity [16]: 10.88%; viability at 3.125 µM [17]: 84.4%
22 | 25.1 | C=C(C)[C@H]1C[C@]23C[C@H](CC=C(C)C)C(C)(C)[C@](CC=C(C)C)(C(=O)C(C(=O)c4cccc(O)c4)=C2O[C@@H]1C=C(C)C)C3=O | 17.9 | 
11.7 | 20.6 | CC(C)=CC[C@@H]1C[C@]23C[C@H](CCC(C)(C)O)C(C)(C)[C@](CC=C(C)C)(C(=O)C(C(=O)c4ccc(O)c(O)c4)=C2OC1(C)C)C3=O | 23.9 | 
16.6 | 9.7 | CNC(=O)c1cc(Oc2ccc(NC(=O)Nc3ccc(Cl)c(C(F)(F)F)c3)cc2)ccn1 [SORAFENIB] | 12.4 | 
23.2 | 27.2 | C=C(C)CC[C@@H](C[C@]12C[C@H](CC=C(C)C)C(C)(C)[C@](CC=C(C)C)(C(=O)C(C(=O)c3cccc(O)c3)=C1O)C2=O)C(=C)C | 20.8 | 
9.5 | 17.3 | C=C(C)CC[C@@H]1C[C@]23C[C@H](CCC(C)(C)O)C(C)(C)[C@](CC=C(C)C)(C(=O)C(C(=O)c4ccc(O)c(O)c4)=C2OC1(C)C)C3=O | 15.8 | 
